Test system: HEK293T cells
Assay: Live cell fluorescence imaging and flow cytometry of DPP-2 and DPP-3 in HEK293T cells
Format: cell-based, human
Conditions: for effect of inhibitor on DPP-3 signal: 1 μM PalmB, 1 μM ML348, 1 or 5 μM ML349 (FIGS. 10, 11)
Experimental: HEK293T (650,000 cells per dish) cells were plated with 1.5 mL of Dulbecco's Modified Eagle Medium (DMEM) (High Glucose, 10% fetal bovine serum (FBS)) in a 35 mm glass bottom dish (D35-10-1.5-N; Cellvis, Mountain View, Calif., United States of America) 24 hrs prior to imaging. 30 min before the addition of the DPP probe, the cell culture media was removed and cells were washed with 1 mL of Delbecco's phosphate-buffered saline (DPBS). The media was then replaced with 1 mL of DMEM containing 1 μM Hoechst 33342 and either 0.1% DMSO carrier as a control, 1 or 2 μM Palm B, 0.1, 1.0, or 5 μM ML348, and incubated for 30 min at 37° C. and 5% CO2. The media was removed, the cells were washed with 1 mL of Live Cell Imaging Solution (Thermo Fisher Scientific, Waltham, Mass., United States of America), and 1 mL of 1 μM DPP-2 or DPP-3 in Live Cell Imaging Solution was added to each plate. For ML348 0.1, 1.0, or 5 μM was added along with DPP-2 or DPP-3. After incubation for 15 min at 37° C. and 5% CO2, images were obtained on an inverted epi-fluorescence microscope (Olympus IX83; Olympus Corporation, Tokyo, Japan) attached with EMCCD camera (Photometrics EVOLVE™ Delta; Photometrics, Tucson, Ariz., United States of America) with 40× oil objective (N/A 1.3) for DPP-2 (excitation filter 500/20, dichroic chroma 89007, emission filter 535/30, exposure time 200 ms, EM gain 25), Hoechst 33342: (excitation filter 402/15, emission filter 455/50, dichroic chroma 89013, exposure time 30 ms, EM gain 25), and brightfield (exposure time 5 ms, EM gain 5), and for DPP-3 (exposure time 500 ms, EM gain 150), Hoechst 33342: (exposure time 30 ms, EM gain 25), and brightfield (exposure time 20 ms, EM gain 5). Analyses were performed in ImageJ. For data analysis, the average fluorescence intensity per image in each experimental condition was obtained by selecting regions of interest (ROIs) in the brightfield image. For display, the data were normalized to the average fluorescence intensity of the control conditions. Each experiment was repeated at least three separate times with identical results.
Cells were plated on a 10 cm dish with 10 mL of DMEM/High Glucose (10% FBS, 1% P/S, L-Glutamine, Sodium pyruvate) 36-48 hours prior to the day of experiment and maintained at 37° C., 5% CO2 so as to obtain 80-90% confluency. Cells were washed with DPBS and trypsinized with 1 mL 0.05% Trypsin. 5 mL of DMEM/High Glucose (10% FBS, L-Glutamine, Sodium pyruvate) was added and cells were spun down at 1200 rpm for 3 min. Media was discarded and cells were resuspended in 5 mL of Live Cell Imaging Solution and again spun down at 1200 rpm for 3 min. The cells pellets obtained were resuspended in 3-5 mL of Live Cell Imaging Solution and divided into 500 μL aliquots. The aliquots were treated with either 0.2% DMSO carrier or 1 μM of PalmB/ML348 or 1 μM/5 μM of ML349 inhibitor. After 30 min of incubation at room temperature, 1 μL of 2.5 mM DPP-3 in DMSO was added to each aliquot for a final concentration of 5 μM, and the solutions were mixed. After 5 min incubation at room temperature, fluorescence signal in FITC channel was measured for 10000 cells (5000 for HeLa experiments) on a LSR-Fortessa 4-15 HTS (BD digital instrument, 488 nm laser with 530/30 nm filter for FITC; BD, Franklin Lakes, N.J., United States of America). For analyzing DPP2 in HEK293T cells, the aliquots were treated with either 0.2% DMSO carrier or 2 μM of PalmB, 5 or 20 μM of ML348/ML349 and then analyzed by the protocol as mentioned above. Data was analyzed by FlowJo software version 10.0.8. For comparison of A431 starved versus non-starved, parallel 10 cm dishes of A431 cells were plated in 10 mL of DMEM (high glucose, 10% FBS, 1% P/S), and grown for 36 h. The growth media was removed, and replaced by 10 mL of either DMEM (High glucose) with 10% FBS to maintain “growth” conditions, or DMEM (High glucose) without FBS respectively for “starvation” conditions, and incubated for 14 h. […]

| SMILES | effect of inhibitor on DPP-3 signal | effect of inhibitor on DPP-2 fluorescent signal (5 μM inhibitor) | effect of inhibitor on DPP-2 fluorescent signal (2 μM inhibitor) |
| --- | --- | --- | --- |
| O=C(CN1CCN(C(=O)c2ccco2)CC1)Nc1cc(C(F)(F)F)ccc1Cl [ML348] | lower amounts of PalmB or ML348 were needed to perturb the signal | perturbed | – |
| COc1ccc(N2CCN(C(=O)c3cc4c(s3)-c3ccccc3S(=O)(=O)C4)CC2)cc1 [ML349] | not substantially perturbed | perturbed | – |
| CCCCCCCCCC[C@@H]1C(=O)O[C@H]1CCc1ccc(OC)c(OC)c1 [PalmB, palmostatin B] | lower amounts of PalmB or ML348 were needed to perturb the signal | – | perturbed |

Reference: patent US10413583B2, “Synthetic substrates for enzymes that catalyze reactions of modified cysteines and related methods” (The University of Chicago, priority 2016, dated 2019)
